Measurements taken from paper PMC2866327, “Designed Inhibitors of Insulin-Degrading Enzyme Regulate the Catabolism and Activity of Insulin” (PLoS ONE, 2010).
Several values for one entry are separate records, joined by “and”; a condition that tells them apart may be missing. Equal entries are not always repeated. Where two headings read alike, the source gives them in different places.

Key:
IDE [1] = target: T1, IDE (Homo sapiens, UniProt P14735); settings: cited from earlier work; for IC50: known IDE inhibitors, no reference given
IDE [2] = target: T1, IDE; test: In vitro IDE enzymatic assay (hydrolysis of FRET1, SP1, FAβB, 125I-insulin or insulin by HTRF); format: biochemical; parameters: made in house; host or cells: bacteria; settings: for IC50: commercially available hydroxamic acids
MMP-8 = settings: best known target MMP-8; no reference given; cited from earlier work
CHO-IR cells [3] = test: Live-cell imaging of intracellular insulin catabolism (FITC-ins); format: cell-based; settings: FITC-ins-loaded CHO-IR cells, Ii1 10 µM, 22°C
Description: CHO-IR cells were cultured on poly-D-lysine glass bottom culture dishes (MatTek Corp.), loaded with FITC-ins (2 µM; Invitrogen) for 2 h at 37°C, washed with Hank's balanced salt solution (HBSS), then imaged consecutively at fixed intervals by fluorescence microscopy at 22°C. Intracellular and extracellular fluorescence in the resulting images was quantified using MetaMorph software according to manufacturer's recommendations (Molecular Devices).

CHO-IR cells [4] = test system: CHO-IR cells
CHO-IR cells [5] = test: Quantification of prebound 125I-insulin catabolism; format: cell-based; settings: 10 µM inhibitor, 5 min at 37°C
Description: Confluent monolayers of CHO-IR cells grown in 6-well culture dishes were cold loaded with 240 pM ^125I-insulin for 1 h and washed 3 times with ice-cold HBSS/1% BSA. […] Following harvesting of cells by scraping, ^125I levels were quantified by gamma counter (Beckman).

cathepsin D = target: T2, cathepsin D (Bos taurus, UniProt P80209); test: Cathepsin D activity (Cathepsin D Assay Kit); format: biochemical
T2 construct: purchased Sigma-Aldrich

[6] = test system: IR autophosphorylation (Tyr 1146) in CHO-IR cells; test: IR autophosphorylation assay (ELISA); format: cell-based, human; settings: CHO-IR cells cold-loaded with insulin, 10 µM inhibitor, 5 min at 37°C
Description: CHO-IR cells were grown to near confluency in 6-well plates, washed, then starved for 6 h in insulin-free medium (DMEM/0.1% BSA). Cells were then cold-loaded with human insulin essentially as described. Briefly, after cooling the cells to 4°C, the medium was replaced with ice-cold HBSS/1% BSA supplemented with insulin (10 nM), incubated at 4°C for 1 h, washed 3 times with ice-cold HBSS/1% BSA. After addition of ice-cold HBSS/1% BSA supplemented with IDE inhibitors (10 µM) or DMSO, the cells were incubated at 37°C for 5 min, then rapidly cooled on ice. Cell lysates were harvested using manufacturer-provided cell-lysis buffer (Cell Signaling Technology) supplemented with additional phosphatase inhibitors (Millipore). IR autophosphorylation (Tyr 1146) and total IR levels were quantified by ELISAs (Cell Signaling Technology), and confirmed by western blotting with the same antibodies used for ELISAs or GAPDH as a loading control.

HeLa cells = test: Cell-based extracellular insulin degradation assay, HeLa cells
Excerpt: (§1) Recombinant human insulin (Sigma) was applied to CHO-IR cells or HeLa cells grown to near-confluency on 96-well plates under normal cell culture conditions, and its disappearance over time in the presence of different concentrations of IDE inhibitors or vehicle was quantified using a HTRF-based insulin assay (CIS-Bio). CHO-IR cells were a generous gift from Dr. Michel Bernier (National Instutute on Aging) and HeLa cells were purchased from American Type Culture Collection.

CHO-IR cells [7] = test: Cell-based extracellular insulin degradation assay, CHO-IR cells
Excerpt: as §1

MMP-13 = settings: best known target MMP-13; no reference given; cited from earlier work
MMP-2 = settings: best known target MMP-2; no reference given; cited from earlier work
MMP-3 = settings: best known target MMP-3; no reference given; cited from earlier work
IDE [8] = target: T1, IDE; test: Cell-based assays (not shown)
IDE [9] = target: T1, IDE; test: High-throughput screening, Aβ degradation assay; format: biochemical; settings: high-throughput screening hit
Excerpt: The few IDE inhibitors currently in use are generally non-selective and/or highly toxic, and all suffer from extremely low potency, requiring mM concentrations to achieve complete inhibition (Table S1). To develop improved inhibitors of IDE, we initially conducted high-throughput screening on ∼115,000 compounds, using a previously developed Aβ degradation assay. Although several inhibitors were discovered, most of these were either toxic, thiol-alkylating compounds [18] […] Among the remaining inhibitors, just a single compound, known as nullscript

TACE = settings: best known target TACE; no reference given; cited from earlier work
[10] = focused library of retro-inverso peptide hydroxamates Xaa-Arg-Tyr, modification at P1', Fig. 2B, read-out: Ki

T1 sequence (P14735 whole entry): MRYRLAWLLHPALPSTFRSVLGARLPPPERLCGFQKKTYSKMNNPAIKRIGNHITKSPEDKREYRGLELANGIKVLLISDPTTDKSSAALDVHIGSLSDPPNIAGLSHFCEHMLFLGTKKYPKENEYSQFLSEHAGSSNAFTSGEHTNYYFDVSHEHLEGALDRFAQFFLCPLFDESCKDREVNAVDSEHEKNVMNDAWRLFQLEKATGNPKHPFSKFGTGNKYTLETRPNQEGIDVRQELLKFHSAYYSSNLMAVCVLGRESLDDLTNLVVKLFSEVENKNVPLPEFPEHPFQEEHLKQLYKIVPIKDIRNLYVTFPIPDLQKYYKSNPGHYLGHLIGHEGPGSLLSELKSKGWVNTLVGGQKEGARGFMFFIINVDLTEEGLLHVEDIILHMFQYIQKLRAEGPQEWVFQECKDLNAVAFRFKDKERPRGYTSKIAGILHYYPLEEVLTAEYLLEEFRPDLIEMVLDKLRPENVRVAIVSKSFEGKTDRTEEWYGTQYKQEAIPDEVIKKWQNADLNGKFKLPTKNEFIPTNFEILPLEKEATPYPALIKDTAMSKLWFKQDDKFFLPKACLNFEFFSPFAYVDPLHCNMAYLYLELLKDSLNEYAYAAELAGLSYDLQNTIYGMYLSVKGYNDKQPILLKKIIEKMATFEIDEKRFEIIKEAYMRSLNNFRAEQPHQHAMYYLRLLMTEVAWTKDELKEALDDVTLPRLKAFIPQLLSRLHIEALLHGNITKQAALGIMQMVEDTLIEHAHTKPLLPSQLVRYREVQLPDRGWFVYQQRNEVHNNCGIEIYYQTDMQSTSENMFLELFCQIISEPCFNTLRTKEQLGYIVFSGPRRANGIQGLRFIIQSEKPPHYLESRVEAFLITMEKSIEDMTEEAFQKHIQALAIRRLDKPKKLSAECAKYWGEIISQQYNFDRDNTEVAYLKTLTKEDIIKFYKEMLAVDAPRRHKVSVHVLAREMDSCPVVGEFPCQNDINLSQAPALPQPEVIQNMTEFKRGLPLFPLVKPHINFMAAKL
T2 sequence (P80209 45-390): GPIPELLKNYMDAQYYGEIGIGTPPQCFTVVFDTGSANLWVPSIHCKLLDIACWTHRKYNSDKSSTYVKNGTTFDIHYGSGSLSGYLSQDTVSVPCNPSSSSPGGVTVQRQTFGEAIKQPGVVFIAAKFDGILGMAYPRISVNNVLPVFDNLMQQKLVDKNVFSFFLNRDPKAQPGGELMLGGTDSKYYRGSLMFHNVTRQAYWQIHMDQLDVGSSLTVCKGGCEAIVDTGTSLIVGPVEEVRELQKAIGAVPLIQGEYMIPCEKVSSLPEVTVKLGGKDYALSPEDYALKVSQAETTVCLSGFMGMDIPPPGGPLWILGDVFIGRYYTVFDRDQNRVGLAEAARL

## c1cnc2c(c1)ccc1cccnc12 [1,10 phenanthroline]
IDE [1]
  IC50: 300000 nM

## N=C(N)NCCC[C@@H](NC(=O)[C@H](N)Cc1ccc(O)cc1)C(=O)N[C@@H](CC(=O)NO)Cc1cccc2ccccc12 [1-naphthylalanine]
IDE [2]; [10]
  Ki: 700 nM

## N=C(N)NCCC[C@@H](NC(=O)[C@H](N)Cc1ccc(O)cc1)C(=O)N[C@@H](CC(=O)NO)Cc1ccc2ccccc2c1 [2-naphthylalanine]
IDE [2]; retro-inverso library
  gain in potency relative to Phe at P1': ~100 fold

## N=C(N)NCCC[C@@H](NC(=O)[C@H](N)Cc1ccc(O)cc1)C(=O)N[C@@H](CC(=O)NO)Cc1cccc(F)c1 [3-fluorophenylalanine]
IDE [2]; [10]
  Ki: 7000 nM

## CC(C)(C)c1ccc(C[C@H](CC(=O)NO)NC(=O)[C@@H](CCCNC(=N)N)NC(=O)[C@H](N)Cc2ccc(O)cc2)cc1 [4-(tert-butyl)-phenylalanine]
IDE [2]; [10]
  Ki: 16000 nM

## N=C(N)NCCC[C@@H](NC(=O)[C@H](N)Cc1ccc(O)cc1)C(=O)N[C@@H](CC(=O)NO)Cc1ccc(F)cc1 [4-fluorophenylalanine]
IDE [2]; [10]
  Ki: 7000 nM

## O=C(O)CN(CCN(CC(=O)O)CC(=O)O)CC(=O)O [EDTA]
IDE [1]; ref [18], [40]
  inhibition of IDE: does not inhibit IDE except after prolonged incubation

## CNC(=O)[C@H](Cc1c[nH]c2ccccc12)NC(=O)[C@@H](CC(=O)NO)CC(C)C [GM6001 (Galardin), reference compound]
MMP-8
  IC50: […]
IDE [2]
  IC50: 6000 nM

## N=C(N)NCCC[C@H](NC(=O)[C@@H](CC(=O)NO)Cc1ccc2ccccc2c1)C(=O)N[C@@H](Cc1c[nH]c2ccccc12)C(=O)N[C@@H](CCC(=O)O)C(N)=O [Ii1]
CHO-IR cells [3]
  intra- and extracellular FITC fluorescence over time: remained essentially constant
CHO-IR cells [4]
  toxicity: No toxicity
CHO-IR cells [5]
  decrease of prebound 125I-insulin: inhibited completely
Cathepsin D
  inhibition of cathepsin D: not
[6]
  insulin-stimulated IR autophosphorylation: consistently potentiated
HeLa cells
  IC50 for inhibition of degradation of extracellular insulin: comparable to that obtained in vitro
HeLa cells; Ii1 10 µM
  insulin catabolism (progress curve): completely inhibited
CHO-IR cells [7]
  IC50 for inhibition of degradation of extracellular insulin: comparable to that obtained in vitro
CHO-IR cells [7]; Ii1 10 µM
  insulin catabolism (progress curve): completely inhibited
IDE [2]; all substrates tested
  Hill slopes for inhibition: < 1
IDE [2]; conventional peptide hydroxamates, Fig. 1, read-out: Ki
  Ki: 1.7 nM and ~1.7 nM
IDE [2]; hydrolysis of Aβ
  mode of inhibition: purely competitive
IDE [2]; hydrolysis of insulin
  mode of inhibition: purely competitive
IDE [2]; ki^app, Substrate: 125I-Ins
  Ki: 16.3 ± 4.2 nM
IDE [2]; ki^app, Substrate: FAβB
  Ki: 15.7 ± 2 nM
IDE [2]; ki^app, Substrate: HTRF-Ins
  Ki: 16.6 ± 3.1 nM
IDE [2]; ki^app, Substrate: SP1
  Ki: 2.55 ± 0.84 nM

## CC(=O)N[C@H](CCC(=O)NCCNc1cccc2c(S(=O)(=O)O)cccc12)C(=O)N[C@H](Cc1ccc(O)cc1)C(=O)N[C@H](Cc1ccc(C(=O)c2ccccc2)cc1)C(=O)N[C@@H](CC(=O)NO)Cc1ccc2ccccc2c1 [ML3-XF, Hx-2Nap-Bpa-Tyr-Glu(EDANS)-Ac]
CHO-IR cells [5]
  decrease of prebound 125I-insulin: inhibited completely
[6]
  insulin-stimulated IR autophosphorylation: consistently potentiated

## CNC(=O)C(CCc1ccccc1)NC(=O)C(CC(=O)NO)CC(C)C (stereo not shown) [MMP Inhibitor III, reference compound]
MMP-13
  IC50: 0.1 nM
IDE [2]
  IC50: > 100000 nM

## O=C(NO)[C@@H](Cc1ccccc1)NS(=O)(=O)c1ccc(-c2ccccc2)cc1 [MMP-2/9 Inhibitor II, reference compound]
MMP-2
  IC50: 17 nM
IDE [2]
  IC50: > 100000 nM

## COc1ccc(S(=O)(=O)N(CC(=O)NO)CC(C)C)cc1 [MMP-3 Inhibitor II, reference compound]
MMP-3
  IC50: 130 nM
IDE [2]
  IC50: > 100000 nM

## N#Cc1ccc(-c2ccc(OCCC(=O)NO)cc2)cc1 [MMP-3 Inhibitor VII, reference compound]
MMP-3
  IC50: 25 nM
IDE [2]
  IC50: > 100000 nM

## COc1ccc(S(=O)(=O)N2Cc3ccccc3C[C@@H]2C(=O)NO)cc1 [MMP-8 Inhibitor I, reference compound]
MMP-8
  IC50: 4 nM
IDE [2]
  IC50: > 100000 nM

## CCN1C(=O)C=CC1=O [N-ethylmaleimide]
IDE [1]
  IC50: 220000 nM

## O=C(CCCN1C(=O)c2cccc3cccc(c23)C1=O)NO [Nullscript]
IDE [8]
  effect in cell-based assays: ineffective
IDE [9]
  IC50 values: submicromolar
IDE [2]
  IC50: 900 nM

## CC(C)C[C@H](CC(=O)NO)C(=O)N[C@@H](Cc1ccc2ccccc2c1)C(=O)N[C@@H](C)C(N)=O [TAPI-0, reference compound]
MMP-13
  IC50: 0.2 nM
IDE [2]
  IC50: 9000 nM

## CC(C)C[C@H](CC(=O)NO)C(=O)N[C@@H](Cc1ccc2ccccc2c1)C(=O)N[C@@H](C)C(=O)NCCN [TAPI-1, reference compound]
TACE
  IC50: 100 nM
IDE [2]
  IC50: 3000 nM

## CC(C)C[C@H](CC(=O)NO)C(=O)N[C@H](C(=O)N[C@@H](C)C(=O)NCCN)C(C)(C)C [TAPI-2, reference compound]
TACE
  IC50: 5000 nM
IDE [2]
  IC50: 11000 nM

## N=C(N)NCCC[C@@H](NC(=O)[C@H](N)Cc1ccc(O)cc1)C(=O)N[C@@H](CC(=O)NO)C(c1ccccc1)c1ccccc1 [diphenylalanine]
IDE [2]; [10]
  Ki: > 500000 nM
